Results: publication PMC6731281, “Production of zosteric acid and other sulfated phenolic biochemicals in microbial cell factories” (Nature Communications, 2019)

What was measured:
Format in all cases: cell-based
SULT1A1Rno = target: T1, SULT1A1Rno (Rattus norvegicus, UniProt P17988); assay: HPLC of supernatant of E. coli expressing the enzyme; product zosteric acid matched synthetic standard; conditions: intracellular PAPS as donor; 100 µM substrate in screen; M9, 37 °C, 24 h
T1 construct: gene Sult1a1; codon-optimized synthetic gene in pETDuet-1, expressed in E. coli KRX or BL21(DE3) (also in S. cerevisiae); whole growing cells

TALRsp = target: T2, TALRsp (Cereibacter sphaeroides, UniProt Q3IWB0); assay: HPLC of p-coumaric and zosteric acid in culture of E. coli co-expressing TAL and SULT1A1; conditions: with or without 2 mM tyrosine; M9, 0.2% glucose, 24 h
T2 construct: gene hutH; co-expressed with rat SULT1A1 in E. coli BL21(DE3); whole growing cells
T2 sequence (Q3IWB0 1-523): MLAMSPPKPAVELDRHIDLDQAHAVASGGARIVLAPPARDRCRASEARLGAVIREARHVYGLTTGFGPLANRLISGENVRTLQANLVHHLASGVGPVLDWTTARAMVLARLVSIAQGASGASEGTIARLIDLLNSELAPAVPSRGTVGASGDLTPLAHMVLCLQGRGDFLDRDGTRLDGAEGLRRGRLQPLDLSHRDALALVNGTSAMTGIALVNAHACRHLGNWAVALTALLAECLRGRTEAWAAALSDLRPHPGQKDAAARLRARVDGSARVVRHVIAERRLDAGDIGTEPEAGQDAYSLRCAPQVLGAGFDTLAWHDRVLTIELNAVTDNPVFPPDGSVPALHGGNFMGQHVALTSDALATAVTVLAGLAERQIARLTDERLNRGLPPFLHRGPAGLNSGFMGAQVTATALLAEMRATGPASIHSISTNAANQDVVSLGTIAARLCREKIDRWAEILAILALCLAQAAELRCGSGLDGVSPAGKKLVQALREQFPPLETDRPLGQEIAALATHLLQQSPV

TALFjo = target: T3, TALFjo (Flavobacterium johnsoniae, UniProt A5FKY3); assay: as above; conditions: with or without 2 mM tyrosine; M9, 0.2% glucose, 24 h
T3 construct: gene Fjoh_1109; co-expressed with rat SULT1A1 in E. coli BL21(DE3) (also in S. cerevisiae); whole growing cells
T3 sequence (A5FKY3 1-506): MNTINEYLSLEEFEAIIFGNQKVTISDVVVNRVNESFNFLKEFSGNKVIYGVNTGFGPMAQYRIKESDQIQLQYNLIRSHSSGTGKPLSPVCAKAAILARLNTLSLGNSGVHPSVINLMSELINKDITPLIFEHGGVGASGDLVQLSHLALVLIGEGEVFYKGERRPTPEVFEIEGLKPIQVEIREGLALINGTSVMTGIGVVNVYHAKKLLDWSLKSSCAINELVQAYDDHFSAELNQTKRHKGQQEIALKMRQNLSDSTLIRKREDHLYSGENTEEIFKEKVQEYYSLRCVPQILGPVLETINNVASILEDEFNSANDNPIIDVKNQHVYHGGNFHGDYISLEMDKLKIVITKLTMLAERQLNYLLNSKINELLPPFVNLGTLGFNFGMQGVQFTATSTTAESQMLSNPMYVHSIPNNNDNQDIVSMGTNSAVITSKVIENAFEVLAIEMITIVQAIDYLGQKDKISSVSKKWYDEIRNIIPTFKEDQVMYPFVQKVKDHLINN

TALRca = target: T4, TALRca (Rhodobacter capsulatus, UniProt D5AR26); assay: as above; conditions: with or without 2 mM tyrosine; M9, 0.2% glucose, 24 h
T4 construct: gene hutH; co-expressed with rat SULT1A1 in E. coli BL21(DE3); whole growing cells
T4 sequence (D5AR26 1-531): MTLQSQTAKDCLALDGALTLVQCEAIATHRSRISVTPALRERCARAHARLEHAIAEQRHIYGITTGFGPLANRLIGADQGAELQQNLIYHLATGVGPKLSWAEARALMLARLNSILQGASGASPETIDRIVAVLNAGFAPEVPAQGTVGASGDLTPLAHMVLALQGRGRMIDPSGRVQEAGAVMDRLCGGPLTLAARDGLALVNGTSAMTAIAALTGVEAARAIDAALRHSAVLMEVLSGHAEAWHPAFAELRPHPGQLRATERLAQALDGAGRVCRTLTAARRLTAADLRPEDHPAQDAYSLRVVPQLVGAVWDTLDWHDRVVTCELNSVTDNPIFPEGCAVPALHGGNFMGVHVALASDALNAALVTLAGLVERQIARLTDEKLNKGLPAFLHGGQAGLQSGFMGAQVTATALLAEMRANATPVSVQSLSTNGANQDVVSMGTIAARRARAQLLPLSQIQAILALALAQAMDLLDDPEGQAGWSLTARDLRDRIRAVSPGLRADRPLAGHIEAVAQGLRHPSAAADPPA

T1 sequence (P17988 whole entry): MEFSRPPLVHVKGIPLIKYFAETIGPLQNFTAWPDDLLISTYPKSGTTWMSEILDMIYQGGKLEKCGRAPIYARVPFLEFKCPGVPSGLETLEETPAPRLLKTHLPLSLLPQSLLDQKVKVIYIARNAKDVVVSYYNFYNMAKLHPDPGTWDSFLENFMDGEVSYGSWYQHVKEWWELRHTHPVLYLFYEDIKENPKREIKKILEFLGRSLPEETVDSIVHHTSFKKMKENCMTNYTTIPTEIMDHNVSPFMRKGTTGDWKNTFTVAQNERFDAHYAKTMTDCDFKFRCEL

O=C(O)/C=C/c1ccc(O)cc1 [p-coumaric acid]
HPLC of supernatant of E. coli expressing the enzyme; product zosteric acid matc (SULT1A1Rno): SULT1A1Rno showed the greatest production of zosteric acid from p-coumaric acid

N[C@@H](Cc1ccc(O)cc1)C(=O)O [tyrosine]
HPLC of p-coumaric and zosteric acid in culture of E. coli co-expressing TAL and (TALRsp): expression of a TAL-encoding gene was required for the production of pHCA
HPLC of p-coumaric and zosteric acid in culture of E. coli co-expressing TAL and (TALFjo): expression of a TAL-encoding gene was required for the production of pHCA
HPLC of p-coumaric and zosteric acid in culture of E. coli co-expressing TAL and (TALRca): expression of a TAL-encoding gene was required for the production of pHCA
